Entries after “also recorded” stand apart in the source; their conditions may differ.
What was measured:
[1] = tested on: TGase 2 (TGM-2) transcript; experiment: qPCR of TGases mRNA in mouse scleral fibroblasts after muscarinic agents; type: cell-based; conditions: 0.01-10 μM for 5 days, qPCR normalized to GAPDH
Procedure: (§1) P2 cultured mouse scleral fibroblasts were treated with atropine or carbachol at different concentrations of 0.01 μM, 0.1 μM, […], 5 μM and 10 μM for 5 days. Following 5 days of treatment, the total RNA was extracted from these cells and TGases transcript level was quantified via qPCR analysis. Height of bars show the means of three independent samples and error bars represent standard deviation. Values are normalized against GAPDH house keeping genes.
Murine scleral derived fibroblasts were cultured to passage 2 and treated to exogenous atropine or carbachol at 0.01 μM, 0.1 μM, 1 μM, 5 μM and 10 μM for 5 days. Following 5 days of treatment, the total RNA was extracted from these cells and RT-qPCR performed to determine transcript levels of TGM-2. The levels were normalized to GAPDH internal control. […] Height of bars or symbols represents mean and error bars SD. *: p<0.05 and **: p<0.001.
All cells used in examples described herein were between passages 2-4. Passaged cells were plated at a concentration of 2×10^5/mL into 6 well plates containing DMEM with 10% FBS. The cells were seen to attach to the bottom of the culture wells after 4 hours. […] The supernatant was poured into a new eppendorf tube and cell concentrations were determined using the Dc Protein assay Kit (Bio-Rad, MA). […] Cell lysate was collected for relative quantitative (q) PCR and protein analysis at day 5. […]

TG-3 = experiment: Western blot of TG proteins in human scleral fibroblasts after muscarinic agents; type: cell-based; conditions: 0.01-10 μM for 5 days
TGase 1 transcript = experiment: qPCR of TGases mRNA in mouse scleral fibroblasts after muscarinic agents; type: cell-based; conditions: 0.01-10 μM for 5 days, qPCR normalized to GAPDH
Procedure: as §1
(§2) All cells used in examples described herein were between passages 2-4. Passaged cells were plated at a concentration of 2×10^5/mL into 6 well plates containing DMEM with 10% FBS. The cells were seen to attach to the bottom of the culture wells after 4 hours. Old media was removed from wells and 1 mL of drug was added with fresh full medium and incubated at 37° C. Fresh drugs were replaced daily consecutively for the next 5 days to avoid oxidation. The drugs/media was removed and wells were washed twice with 1×PBS. 200 μl of RIPA lysis buffer was added per well and incubated for 5 minutes and cells were scrapped into an eppendorf tube. The cells were stored at −20° C. until sonication. The cells were sonicated on ice thrice at 20% output power for 5 seconds each time and rested 1 minute in between each turn. Cell debris was spun down at 12000 rpm for 20 minutes. The supernatant was poured into a new eppendorf tube and cell concentrations were determined using the Dc Protein assay Kit (Bio-Rad, MA). Passaged cells were plated at a concentration of 1×10^5 into 6 well plates containing DMEM with 10% FBS. The cells were seen to attach to the bottom of the culture wells after 4 hours. Freshly prepared muscarinic agents' at base line, 0.1, 1, 10 and 100 μM concentrations were added for 5 days (Table 2). The culture medium was removed and fresh medium containing the same muscarinic drug added every day to avoid drug changes such as atropine oxidation. Cell lysate was collected for relative quantitative (q) PCR and protein analysis at day 5.
(§3) Total RNA was isolated from cultured human and mouse scleral fibroblasts using TRIzol reagent (Invitrogen life technologies, USA) in accordance with the manufacturer's instructions Chomczynski P, Sacchi N., “Single-step method of RNA isolation by acid guanidinium thiocyanate-phenol-chloroform extraction”, Anal. Biochem. 1987 April; 162(1):156-9. Genomic DNA was removed by digestion with DNase I (Amp Grade; Invitrogen-Gibco) for 15 minutes at room temperature. One microgram of total RNA was reverse-transcribed with random hexamers by using a first-strand cDNA synthesis kit (Invitrogen-Gibco). qPCR was performed in a 384-well plate format on an Roche 480 LightCycler Detection System (Roche Applied Science, Mannheim, Germany) with efficiency corrected software 4.0. PCR was performed using 50 ng of cDNA of each sample. The pre-validated hydrolysis probes for TG-2 were from human and mouse universal probe library (Roche, CA) and the primers for human and mouse are shown in Table 3. GAPDH Internal Standard (Roche) was used as an endogenous control. To standardize and evaluate scleral gene expression, aliquots of the same cDNA (50 ng) preparation were used as templates in all PCR reactions. The data was analyzed by comparative CT (MCT) method as previously described in Brink N, Szamel M, Young A R, Wittern K P, Bergemann J., “Comparative quantification of IL-1, IL-10, Il-10r, TNF and IL-7 mRNA levels in UV-irradiated human skin in vivo”, Inflamm Res. 2000 June; 49(6):290-6.

TGase 5 transcript = experiment: as above; type: cell-based; conditions: 0.01-10 μM for 5 days, qPCR normalized to GAPDH
Procedure: as §1, §2, §3

TGase-3 transcript = experiment: as above; type: cell-based; conditions: 0.01-10 μM for 5 days, qPCR normalized to GAPDH
Procedure: as §1, §2, §3

TG-5 = experiment: Western blot of TG proteins in human scleral fibroblasts after muscarinic agents; type: cell-based; conditions: 0.01-10 μM for 5 days
TG-2 = TG-2 colorimetric microassay (transamidase activity) in lysate of treated mouse scleral fibroblasts; type: cell-based; conditions: murine scleral derived fibroblasts, 0.01-10 μM for 5 days
hM5 = biological target: T1, hM5 (Homo sapiens, UniProt P08912); experiment: himbacine binding to cloned muscarinic receptor subtypes; conditions: cloned receptor subtype; data not shown
T1 sequence (P08912 1-532): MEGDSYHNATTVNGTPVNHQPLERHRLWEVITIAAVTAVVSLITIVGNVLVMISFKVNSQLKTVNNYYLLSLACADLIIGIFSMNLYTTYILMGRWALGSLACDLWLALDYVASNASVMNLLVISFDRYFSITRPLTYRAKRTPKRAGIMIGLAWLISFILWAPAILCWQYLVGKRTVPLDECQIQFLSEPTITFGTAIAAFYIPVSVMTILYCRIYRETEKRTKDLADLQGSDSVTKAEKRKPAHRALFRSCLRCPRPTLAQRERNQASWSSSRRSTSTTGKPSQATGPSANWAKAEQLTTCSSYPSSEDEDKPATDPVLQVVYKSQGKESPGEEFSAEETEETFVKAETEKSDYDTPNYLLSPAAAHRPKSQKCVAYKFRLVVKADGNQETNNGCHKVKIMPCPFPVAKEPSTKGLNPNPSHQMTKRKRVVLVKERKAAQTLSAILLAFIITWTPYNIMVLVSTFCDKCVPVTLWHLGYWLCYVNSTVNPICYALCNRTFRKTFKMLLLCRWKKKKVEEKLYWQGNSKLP

Row | Structure (SMILES) | TGase 2 (TGM-2) transcript level [1] | TG-3 protein level (TG-3) | TGase 1 transcript level (TGase 1 transcript) | TGase 5 transcript level (TGase 5 transcript) | TGase-3 transcript level (TGase-3 transcript) | TG-5 protein level (TG-5) | transamidase (cross-linking) activity of TG-2 (TG-2) | Kd (hM5)
1 | CN1[C@@H]2CC[C@H]1C[C@@H](OC(=O)C(CO)c1ccccc1)C2 (some centres unmarked) [atropine] | reduction; also recorded: down regulated | increased | down regulated | down regulated | upregulated | reduced | reduction | –
2 | C[C@@H]1OC(=O)[C@H]2C[C@H]3CCCC[C@@H]3[C@@H](/C=C/[C@H]3CCC[C@H](C)N3C)[C@@H]12 [himbacine] | – | – | – | – | – | – | – | 0.296 µM

— US20140050779A1, “[…]-2 INHIBITORS AND USES THEREOF” (SINGAPORE HEALTH SERVICES PTE. LTD., priority 2011, published 2014)
